Test results published in patent publication US10131652B2, “Pyrimidinyloxy benzene derivatives as herbicides” (E. I. DU PONT DE NEMOURS AND COMPANY, priority 2014, dated 2018).
Where two headings read alike, the source gives them in different places.

Experiments:
Assay in all cases: Test E pre-/postemergence plant response
Format in all cases: in vivo
[1] = tested on: Italian ryegrass (Lolium multiflorum); settings: scale 0 to 100, read-out: Plant response rating, Ryegrass, Italian; for pest or weed control at 16 g/ha: 16 g ai/ha; for pest or weed control at 31 g/ha: 31 g ai/ha; for pest or weed control at 62 g/ha: 62 g ai/ha; for pest or weed control at 125 g/ha: 125 g ai/ha
Summary of the method: (§1)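 Visual scores on a 0–100 scale (100 = complete control) were assigned against untreated controls 7–21 days after treatment in a controlled environment. Compounds, formulated with solvent plus surfactant, were applied to pre-emergence silt-loam sowings or to 1- to 4-leaf plants (2–18 cm) in potting medium.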

[2] = tested on: deadnettle (henbit deadnettle, Lamium amplexicaule); settings: pre-emergence, Preemergence, scale 0 to 100, read-out: Plant response rating, Deadnettle
Summary of the method: as §1

[3] = tested on: field poppy (Papaver rhoeas); settings: scale 0 to 100, read-out: Plant response rating, Field Poppy; for pest or weed control at 16 g/ha: 16 g ai/ha; for pest or weed control at 31 g/ha: 31 g ai/ha; for pest or weed control at 62 g/ha: 62 g ai/ha; for pest or weed control at 125 g/ha: 125 g ai/ha
Summary of the method: as §1

[4] = tested on: field violet (Viola arvensis); settings: scale 0 to 100, read-out: Plant response rating, Field Violet; for pest or weed control at 16 g/ha: 16 g ai/ha; for pest or weed control at 31 g/ha: 31 g ai/ha; for pest or weed control at 62 g/ha: 62 g ai/ha; for pest or weed control at 125 g/ha: 125 g ai/ha
Summary of the method: as §1

[5] = tested on: green foxtail (Setaria viridis); settings: scale 0 to 100, read-out: Plant response rating, Foxtail, Green; for pest or weed control at 16 g/ha: 16 g ai/ha; for pest or weed control at 31 g/ha: 31 g ai/ha; for pest or weed control at 62 g/ha: 62 g ai/ha; for pest or weed control at 125 g/ha: 125 g ai/ha
Summary of the method: as §1

[6] = tested on: lambsquarters (Chenopodium album); settings: scale 0 to 100, read-out: Plant response rating, Lambsquarters; for pest or weed control at 16 g/ha: 16 g ai/ha; for pest or weed control at 31 g/ha: 31 g ai/ha; for pest or weed control at 62 g/ha: 62 g ai/ha; for pest or weed control at 125 g/ha: 125 g ai/ha
Summary of the method: as §1

[7] = tested on: pigweed (Amaranthus retroflexus); settings: scale 0 to 100, read-out: Plant response rating, Pigweed; for pest or weed control at 16 g/ha: 16 g ai/ha; for pest or weed control at 31 g/ha: 31 g ai/ha; for pest or weed control at 62 g/ha: 62 g ai/ha; for pest or weed control at 125 g/ha: 125 g ai/ha
Summary of the method: as §1

[8] = tested on: spring wheat (Triticum aestivum); settings: scale 0 to 100, read-out: Plant response rating, Wheat, Spring; for plant injury at 16 g/ha: 16 g ai/ha; for plant injury at 62 g/ha: 62 g ai/ha; for plant injury at 125 g/ha: 125 g ai/ha
Summary of the method: as §1

[9] = tested on: wild buckwheat (Polygonum convolvulus); settings: Fallopia convolvulus, scale 0 to 100, read-out: Plant response rating, Buckwheat, Wild; for pest or weed control at 16 g/ha: 16 g ai/ha; for pest or weed control at 31 g/ha: 31 g ai/ha; for pest or weed control at 62 g/ha: 62 g ai/ha; for pest or weed control at 125 g/ha: 125 g ai/ha
Summary of the method: as §1

[10] = tested on: wild radish (Raphanus raphanistrum); settings: scale 0 to 100, read-out: Plant response rating, Radish, Wild; for pest or weed control at 16 g/ha: 16 g ai/ha; for pest or weed control at 31 g/ha: 31 g ai/ha; for pest or weed control at 62 g/ha: 62 g ai/ha; for pest or weed control at 125 g/ha: 125 g ai/ha
Summary of the method: as §1

[11] = tested on: winter wheat (Triticum aestivum); settings: scale 0 to 100, read-out: Plant response rating, Wheat, Winter; for plant injury at 16 g/ha: 16 g ai/ha; for plant injury at 62 g/ha: 62 g ai/ha; for plant injury at 125 g/ha: 125 g ai/ha
Summary of the method: as §1

[12] = post-emergence, 31 g ai/ha, Postemergence

Work on `Fc1cccc(Oc2ncc(Cl)cn2)c1-c1cc(C(F)F)no1` [Compound 144, 5-chloro-2-[2-[3-(difluoromethyl)-5-isoxazolyl]-3-fluorophenoxy]pyrimidine] yielded a pest or weed control at 16 g/ha ([1]; post-emergence, Postemergence) of 5%, a pest or weed control at 31 g/ha ([1]; post-emergence, Postemergence) of 15% and a pest or weed control at 62 g/ha ([1]; post-emergence, Postemergence) of 40%. For the same molecule, the pest or weed control at 125 g/ha ([1]; post-emergence, Postemergence) was 65%, the pest or weed control at 16 g/ha ([1]; pre-emergence, Preemergence) was 10% and the pest or weed control at 31 g/ha ([1]; pre-emergence, Preemergence) was 25%. It also gave a pest or weed control at 62 g/ha ([1]; pre-emergence, Preemergence) of 70%, a pest or weed control at 125 g/ha ([1]; pre-emergence, Preemergence) of 100% and a pest or weed control at 16 g/ha ([2]; 16 g ai/ha) of 90%. The pest or weed control at 31 g/ha ([2]; 31 g ai/ha) was 100%, the pest or weed control at 62 g/ha ([2]; 62 g ai/ha) was 100% and the pest or weed control at 125 g/ha ([2]; 125 g ai/ha) was 100%. The pest or weed control at 16 g/ha ([3]; post-emergence, Postemergence) was 100%, the pest or weed control at 31 g/ha ([3]; post-emergence, Postemergence) was 100% and the pest or weed control at 62 g/ha ([3]; post-emergence, Postemergence) was 100%. The pest or weed control at 125 g/ha ([3]; post-emergence, Postemergence) was 100%, the pest or weed control at 16 g/ha ([3]; pre-emergence, Preemergence) was 100% and the pest or weed control at 31 g/ha ([3]; pre-emergence, Preemergence) was 100%. The pest or weed control at 62 g/ha ([3]; pre-emergence, Preemergence) was 100%, the pest or weed control at 125 g/ha ([3]; pre-emergence, Preemergence) was 100% and the pest or weed control at 16 g/ha ([4]; post-emergence, Postemergence) was 95%. For the same molecule, the pest or weed control at 31 g/ha ([4]; post-emergence, Postemergence) was 90%, the pest or weed control at 62 g/ha ([4]; post-emergence, Postemergence) was 100% and the pest or weed control at 125 g/ha ([4]; post-emergence, Postemergence) was 100%. For the same molecule, the pest or weed control at 16 g/ha ([4]; pre-emergence, Preemergence) was 95%, the pest or weed control at 31 g/ha ([4]; pre-emergence, Preemergence) was 100% and the pest or weed control at 62 g/ha ([4]; pre-emergence, Preemergence) was 100%. The pest or weed control at 125 g/ha ([4]; pre-emergence, Preemergence) was 100%, the pest or weed control at 16 g/ha ([5]; post-emergence, Postemergence) was 40% and the pest or weed control at 31 g/ha ([5]; post-emergence, Postemergence) was 50%. For the same molecule, the pest or weed control at 62 g/ha ([5]; post-emergence, Postemergence) was 80%, the pest or weed control at 125 g/ha ([5]; post-emergence, Postemergence) was 100% and the pest or weed control at 16 g/ha ([5]; pre-emergence, Preemergence) was 20%. For the same molecule, the pest or weed control at 31 g/ha ([5]; pre-emergence, Preemergence) was 35%, the pest or weed control at 62 g/ha ([5]; pre-emergence, Preemergence) was 95% and the pest or weed control at 125 g/ha ([5]; pre-emergence, Preemergence) was 100%. The pest or weed control at 16 g/ha ([6]; post-emergence, Postemergence) was 80%, the pest or weed control at 31 g/ha ([6]; post-emergence, Postemergence) was 95% and the pest or weed control at 62 g/ha ([6]; post-emergence, Postemergence) was 98%. The pest or weed control at 125 g/ha ([6]; post-emergence, Postemergence) was 100%, the pest or weed control at 16 g/ha ([6]; pre-emergence, Preemergence) was 100% and the pest or weed control at 31 g/ha ([6]; pre-emergence, Preemergence) was 100%. For the same molecule, the pest or weed control at 62 g/ha ([6]; pre-emergence, Preemergence) was 100%, the pest or weed control at 125 g/ha ([6]; pre-emergence, Preemergence) was 100% and the pest or weed control at 16 g/ha ([7]; post-emergence, Postemergence) was 98%. The pest or weed control at 31 g/ha ([7]; post-emergence, Postemergence) was 100%, the pest or weed control at 62 g/ha ([7]; post-emergence, Postemergence) was 100% and the pest or weed control at 125 g/ha ([7]; post-emergence, Postemergence) was 100%. The pest or weed control at 16 g/ha ([7]; pre-emergence, Preemergence) was 100%, the pest or weed control at 31 g/ha ([7]; pre-emergence, Preemergence) was 100% and the pest or weed control at 62 g/ha ([7]; pre-emergence, Preemergence) was 100%. For the same molecule, the pest or weed control at 125 g/ha ([7]; pre-emergence, Preemergence) was 100%, the plant injury at 16 g/ha ([8]; post-emergence, Postemergence) was 25% and the plant injury at 31 g/ha [8, 12] was 35%. The plant injury at 62 g/ha ([8]; post-emergence, Postemergence) was 45%, the plant injury at 125 g/ha ([8]; post-emergence, Postemergence) was 75% and the plant injury at 16 g/ha ([8]; pre-emergence, Preemergence) was 5%. For the same molecule, the plant injury at 62 g/ha ([8]; pre-emergence, Preemergence) was 40%, the plant injury at 125 g/ha ([8]; pre-emergence, Preemergence) was 55% and the pest or weed control at 16 g/ha ([9]; post-emergence, Postemergence) was 100%. It also gave a pest or weed control at 31 g/ha ([9]; post-emergence, Postemergence) of 95%, a pest or weed control at 62 g/ha ([9]; post-emergence, Postemergence) of 100% and a pest or weed control at 125 g/ha ([9]; post-emergence, Postemergence) of 100%. For the same molecule, the pest or weed control at 16 g/ha ([9]; pre-emergence, Preemergence) was 85%, the pest or weed control at 31 g/ha ([9]; pre-emergence, Preemergence) was 100% and the pest or weed control at 62 g/ha ([9]; pre-emergence, Preemergence) was 100%. For the same molecule, the pest or weed control at 125 g/ha ([9]; pre-emergence, Preemergence) was 100%, the pest or weed control at 16 g/ha ([10]; post-emergence, Postemergence) was 100% and the pest or weed control at 31 g/ha ([10]; post-emergence, Postemergence) was 100%. It also gave a pest or weed control at 62 g/ha ([10]; post-emergence, Postemergence) of 100%, a pest or weed control at 125 g/ha ([10]; post-emergence, Postemergence) of 100% and a pest or weed control at 16 g/ha ([10]; pre-emergence, Preemergence) of 80%. The pest or weed control at 31 g/ha ([10]; pre-emergence, Preemergence) was 80%, the pest or weed control at 62 g/ha ([10]; pre-emergence, Preemergence) was 100% and the pest or weed control at 125 g/ha ([10]; pre-emergence, Preemergence) was 100%. The plant injury at 16 g/ha ([11]; post-emergence, Postemergence) was 20%, the plant injury at 31 g/ha [11, 12] was 30% and the plant injury at 62 g/ha ([11]; post-emergence, Postemergence) was 35%. For the same molecule, the plant injury at 125 g/ha ([11]; post-emergence, Postemergence) was 70%, the plant injury at 16 g/ha ([11]; pre-emergence, Preemergence) was 0% and the plant injury at 62 g/ha ([11]; pre-emergence, Preemergence) was 25%. For the same molecule, the plant injury at 125 g/ha ([11]; pre-emergence, Preemergence) was 35%.
